{
  "source": "paper PMC2374394",
  "about": "“Relationships between hydrophobicity, reactivity, accumulation and peripheral nerve toxicity of a series of platinum drugs” (British Journal of Cancer, 2000)",
  "key": {"[1]": {"tested_on": "female Wistar rats", "procedure": "Neurotoxicity was detected by measuring sensory nerve conduction velocity (SNCV) in Wistar rats treated twice per week at the maximum tolerated dose. […] Animals and treatment Age-matched inbred female Wistar rats were used. Animals were allowed to acclimatize for 2 weeks before the start of the experiment. The animals were 10 weeks old and weighed 210- 240 g at the start of experiment. Platinum compounds (except JM216) were dissolved in sterile 0.9% (w/v) NaCl (Baxter Healthcare, New Zealand) by vortex mixing and sonication at an injection volume of 10 ml kg-1 . The platinum compounds (except JM216) were given by intraperitoneal injection on a twice per week dosing schedule at intervals of 3-4 days and the treatment was repeated weekly for a total of 8 weeks. […] Animals were weighed twice a week and checked for signs of toxicity daily. Animals showing signs of distress were immediately and painlessly killed. Animals had continuous access to food and water. […] Hypnorm (fluanisone 10 mg ml-1 , fentanyl citrate 0.3 mg ml-1 , Jansen Pharmaceuticals, Sydney, Australia) diluted 1:1 with sterile water was given by intramuscular injection to provide light anaesthesia. Responses were evoked by stimu- lating the sciatic nerve at the sciatic notch and the tibial nerve at the ankle of the left hind limb using percutaneous needle elec- trodes."}, "[2]": {"tested_on": "patients", "details": "cited from earlier work"}, "[3]": {"test": "Hydrophobicity (log kw), reverse-phase HPLC coupled to ICP-MS", "assay_type": "physicochemical", "details": "HPLC C8 column, actual or projected mobile phase 100% water; determinants from independent experiments"}, "[4]": {"tested_on": "female Wistar rats", "details": "cited from earlier work"}, "[5]": {"tested_on": "plasma proteins"}, "[6]": {"test": "Hydrophobicity (log P), octanol-saline shake-flask method", "details": "n-octanol / 0.9% NaCl shake-flask, platinum by ICP-MS, mean (n = 5)"}, "[7]": {"tested_on": "plasma proteins", "parameters": "method as in van der Vijgh and Klein, 1986", "details": "ref van der Vijgh and Klein, 1986; cited from earlier work"}, "[8]": {"details": "female Wistar rats, twice per week dosing schedule at the MTD, intraperitoneal"}, "[9]": {"details": "rat plasma, 37C, initial half-life by one-phase exponential decay"}, "[10]": {"details": "female Wistar rats, twice per week dosing schedule at the MTD, same protocol (JM216 by oral gavage), previous results ref McKeage et al, 1994, Screnci et al, 1997"}},
  "note": "Values joined by “and” are separate entries in the source; they are usually repeats but may differ in a detail not shown here. Equal entries are not always repeated. Where two headings read alike, the source gives them in different places.",
  "data": [
    {"smiles": "N.N.[Cl][Pt][Cl]", "note": "[Cisplatin]", "values": [
      {"measurement": "Time to development of altered SNCV", "setting": "[1]; rat, in vivo, ip", "value": 7.0, "unit": "weeks"}
    ]},
    {"smiles": "N[C@@H]1CCCC[C@H]1N.[Cl][Pt+2]([Cl])([Cl])[Cl]", "note": "(racemic) [Ormaplatin, rac-(DACH)PtCl4]", "values": [
      {"measurement": "Incidence of neurotoxicity in patients % (95% CI)", "setting": "[2]; ref Schilder et al, 1994, O'Rourke et al, 1998", "value": "87 (47-100) %"},
      {"measurement": "Neurotoxic potency (cumulative dose causing altered SNCV)", "setting": "[1]; female Wistar rats, repeated treatment twice per week at the MTD, intraperitoneal", "value": 26.0},
      {"measurement": "Time to development of altered SNCV", "setting": "[1]; [8]", "value": 6.0, "unit": "weeks"},
      {"measurement": "Log kw", "setting": "[3]", "value": "0.40 and 0.41"}
    ]},
    {"smiles": "NC1CCCCC1N.[Cl-].[Cl-].[Cl-].[Cl-].[Pt+4]", "note": "(stereo not drawn) [R,R-(DACH)PtCl4]", "values": [
      {"measurement": "Time to development of altered SNCV", "setting": "[4]; rat, in vivo, po", "value": 4.0, "unit": "weeks"},
      {"measurement": "t (h), half-life of binding to plasma proteins in vitro", "setting": "[5]; [9]", "value": 0.97, "unit": "h"},
      {"measurement": "Log kw", "setting": "[3]", "value": "0.40 and 0.42"}
    ]},
    {"smiles": "O=C1[O][Pt-2]2([NH2+]C3CCCC[C@H]3[NH2+]2)[O]C1=O", "note": "(stereo partly drawn) [Oxaliplatin, R,R-(DACH)Pt(oxalato)]", "values": [
      {"measurement": "Time to development of altered SNCV", "setting": "[4]; [10]", "value": 3.0, "unit": "weeks"},
      {"measurement": "Log kw", "setting": "[3]", "value": "0.44 and 0.45"}
    ]},
    {"smiles": "NC1CCCCC1N.O=C([O-])C(=O)[O-].[Pt+2]", "note": "(stereo not drawn) [S,S-(DACH)Pt oxalato]", "values": [
      {"measurement": "Time to development of altered SNCV", "setting": "[4]; rat, in vivo, po", "value": 7.0, "unit": "weeks"},
      {"measurement": "t (h), half-life of binding to plasma proteins in vitro", "setting": "[5]; rat, plasma", "value": 1.21, "unit": "h"},
      {"measurement": "Log kw", "setting": "[3]", "value": "0.44 and 0.45"}
    ]},
    {"smiles": "CC(=O)[O][Pt]([NH2])([Cl])([Cl])([NH]C1CCCCC1)[O]C(C)=O", "note": "[JM216, bis-acetato-ammine-dichloro-cyclohexylamine-platinum(IV)]", "values": [
      {"measurement": "Incidence of neurotoxicity in patients % (95% CI)", "setting": "[2]; ref Judson et al, 1997", "value": "5.6 (0-27) %"},
      {"measurement": "Time to development of altered SNCV", "setting": "[4]; [10]", "value": "> 20.5", "unit": "weeks"},
      {"measurement": "Log P", "setting": "[6]", "value": -0.16},
      {"measurement": "t (h), half-life of binding to plasma proteins in vitro", "setting": "[5]; [9]", "value": 65, "unit": "h"},
      {"measurement": "Log kw", "setting": "[3]", "value": "2.27 and 2.40"}
    ]},
    {"smiles": "NC1CCCCC1N.[Cl-].[Cl-].[Cl-].[Cl-].[Pt+4]", "note": "(stereo not drawn) [S,S-(DACH)PtCl4]", "values": [
      {"measurement": "Time to development of altered SNCV", "setting": "[4]; rat, in vivo, po", "value": 7.0, "unit": "weeks"},
      {"measurement": "t (h), half-life of binding to plasma proteins in vitro", "setting": "[5]; [9]", "value": 0.78, "unit": "h"},
      {"measurement": "Log kw", "setting": "[3]", "value": 0.41}
    ]},
    {"smiles": "N.N.O=C([O-])C1(C(=O)[O-])CCC1.[Pt+2]", "note": "[Carboplatin]", "values": [
      {"measurement": "Incidence of neurotoxicity in patients % (95% CI)", "setting": "[2]; ref Canetta et al, 1985", "value": "5.8 (3.8-8.5) %"},
      {"measurement": "Log P", "setting": "[6]", "value": -2.3},
      {"measurement": "Log P", "setting": "[6]; listed as carboplatin", "value": -2.30},
      {"measurement": "Time to development of altered SNCV", "setting": "[1]; [8]", "value": 8.0, "unit": "weeks"},
      {"measurement": "t (h), half-life of binding to plasma proteins in vitro", "setting": "[7]", "value": 48.6, "unit": "h"},
      {"measurement": "Log kw", "setting": "[3]", "value": 0.20}
    ]}
  ]
}
